According to patent US20130030055A1, “COMPOSITIONS AND METHODS FOR TREATING HAIR LOSS, HAIR THINNING, AND HAIR COLOR LOSS” (priority 2010, published 2013):

What was measured:
Type in all cases: in vivo, human
[1] = Randomized vehicle-controlled study: adverse events
Description: Safety measurements collected during this study included adverse events, ophthalmic examination variables (iris color, IOP, visual acuity, biomicroscopy, and ophthalmoscopy), physical examination, vital signs, and pregnancy testing.
Safety data (adverse events, ophthalmic examination variables, physical examination, and vital signs variables) were summarized by descriptive statistics and/or frequency tables and were analyzed by appropriate nonparametric statistical methods (Pearson's chi-square test, Wilcoxon rank sum test) and/or parametric tests (ANOVA, t-test). The safety analyses were based on the safety population. No data imputation for missing visits or values was performed.

eyelashes [2] = test: Randomized vehicle-controlled study: overall eyelash prominence by GEA scale; conditions: week 16; ITT; 0.03% solution once daily to upper eyelid margins (107/137); p<0.0001 vs vehicle
Description: The objective of this study was to evaluate the safety and efficacy of bimatoprost 0.03% solution once daily compared with vehicle in increasing overall eyelash prominence following dermal administration to the upper eyelid margins.
During the screening visit, each subject was assessed for inclusion/exclusion criteria. Qualifying subjects were randomly allocated in a 1:1 ratio to treatment with bimatoprost 0.03% solution or vehicle, to be applied to both upper eyelid margins once daily in the evening for 4 months.
Subjects applied study medication to the upper eyelid margins using the supplied, disposable, single-use-per-eye applicator once daily in the evening for 4 months. Subjects were instructed to dab or blot any excess study medication runoff on the area outside the upper eyelash margin with a tissue or other absorbent cloth; the upper lid margin was to feel evenly and lightly moist without runoff. Subjects were instructed not to apply study medication to the lower eyelash line. […]
For the primary efficacy endpoint, a clinical response was defined as at least a 1-grade increase in the GEA score from baseline at month 4 (week 16). […] The proportion of subjects with at least a 1-grade increase from baseline was summarized by a frequency table and analyzed by the Pearson's chi-square test for 2-by-2 tables at each visit. […]

eyelashes [3] = test: Randomized vehicle-controlled study: digital image analysis of eyelash length, thickness/fullness, darkness; conditions: week 16; p<0.0001 vs vehicle
Description: The primary efficacy variable was the change in GEA score from the baseline measurement to the month 4 (week 16) measurement. A clinical success was defined as at least a 1-grade increase from baseline. […] The digital image analysis was based on standardized equipment and subject preparation. Digital image analysis is a photographic process developed and performed by Canfield Scientific, Inc. The details regarding these processes are maintained by Canfield Scientific, Inc. and are available upon request. The information describing software and technical processes of digital image analysis is maintained in standard operating procedures (SOPs) and work instruction manuals on file at Canfield Scientific, Inc. Upper eyelash length was measured within a defined eyelash boundary for each eye, known as the full area of interest (AOI). For the digital image, the computer software divided the full AOI image into a series of 25 vertical pixel segments. Within each segment, the maximum upper eyelash length (defined as the maximum height of each segment) was measured in pixels. The mean number of pixels over all segments represented the upper eyelash length and was computed for each digital image across both eyes. Upper eyelash length was additionally measured in terms of millimeters (mm). […] Upper eyelash thickness/fullness was measured within 3 preset rectangular areas (proximal, medial, and distal, each 300×25 pixels) positioned at fixed distances from a standardized point on the eyelash margin. […] Eyelash thickness/fullness was assessed across both eyes as an average of the 3 rectangular areas (i.e., average progressive eyelash thickness), individually for the 3 areas (proximal, medial, and distal), within the full AOI, and within the spline (a narrow area approximately 5 pixels wide, bisecting the AOI). Upper eyelash thickness/fullness was additionally measured in terms of mm2. […] Upper eyelash darkness was determined by lash intensity of the upper eyelash area within the spline. […] Eyelash intensity was calculated within the full AOI and within the spline. […]

## CCNC(=O)CCC/C=C\C[C@@H]1[C@@H](/C=C/[C@@H](O)CCc2ccccc2)[C@H](O)C[C@@H]1O [bimatoprost]
[1]; 5/137, 0.03% solution once daily for 4 months
  Subjects reporting conjunctival hyperemia as an adverse event: 3.6%
[1]; healthy adult subjects
  Overall safety and tolerability: safe and well-tolerated
Eyelashes [2]
  Subjects with at least a 1-grade increase from baseline in overall eyelash prominence (GEA scale): 78.1%
Eyelashes [3]
  Mean change from baseline in eyelash darkness, as darker eyelashes: 18%
  Mean change from baseline in eyelash length, as increase in length: 25%
  Mean change from baseline in eyelash thickness/fullness, as increase: 106%
